Where no end group is shown, it is not given here.
Tests used:
insulitis = test: Suppression of insulitis in NOD mice by oral administration; format: in vivo; details: fed orally; for Insulitis Score: amount (mg) per Table 5, sacrificed at ten weeks of age
Method: NOD mice (Taconic Labs) were fed one mg of glucagon, or one mg of porcine insulin (both commercially purchased) or equal molar amounts of insulin A-chain, B-chain and B-chain peptides described below (all insulin fragments having been synthesized) twice weekly for five weeks and sacrificed at ten weeks of age.
Control animals were fed a non-pancreatic (i.e., unrelated) peptide, GAP. Insulitis was measured as a semiquantitative insulitis score according to the method described in Zhang, Z. J., PNAS(USA), 88:10252-10256, 1991.
The insulin B-chain peptides corresponded to amino acid residues 1-12 (B1-12), 10-22 (B10-22), 11-30 (B11-30) and 23-30 (B23-30). All animals were fed 10 times over three weeks.

OVA (responder) line = test: Transwell triggering of suppression by MBP peptides; format: cell-based, rats; details: peptide added to modulator well with spleen cells of MBP-fed animals; FIG. 11
From the text: Transwell Cultures. A dual chamber transwell culture system (Costar, Cambridge, Mass.), which is 24.5 mm in diameter and consists of two compartments separated by a semi-permeable polycarbonate membrane, with a pore size of 0.4 μm, was used. The two chambers are 1 mm apart, allowing cells to be coin-cubated in close proximity without direct cell-to-cell contact. To measure in vitro suppression of proliferative responses in transwell cultures, 5×10^4 MBP- or OVA-specific line cells, raised and maintained as previously described (Ben-Nun, A. et al., Eur. J. Immunol. 11:195, 1981), were cultured with 10^6 irradiated (2,500 rad) thymocytes, in 600 μl of proliferation media in the lower well. Spleen cells from orally tolerized rats or controls (fed BSA) were added to the upper well (5×10^5 cells in 200 μl). Spleen cells were removed 7-14 days after the last feeding, and a single cell suspension was prepared by pressing the spleens through a stainless steel mesh. MBP and OVA (50 μg/ml) were added in a volume of 20 μl. […] In some experiments, modulator cells were added in the lower well together with responder cells, and in these instances modulator cells were irradiated (1,250 rad) immediately before being placed in culture. Proliferation media consisted of RPMI 1640 (Gibco Laboratories, Grand Island, N.Y.) supplemented with […] 2-mercaptoethanol, 1% sodium pyruvate, 1% penicillin and streptomycin, 1% glutamine, 1% HEPES buffer, 1% nonessential amino acids, and 1% autologous serum. Each transwell was performed in quadruplicate. The transwells were incubated at 37° C. in a humidified 6% CO2 and 94% air atmosphere for 72 hours. After 54 hours of culture, each lower well was pulsed with 4 μCi of [^3H]thymidine and at 72 hours split and reseeded to three wells in a round-bottomed 96-well plate (Costar) for harvesting onto fiberglass filters and counting using standard liquid scintillation techniques. Percent suppression =100×(1−Δ A cpm responders cultured with modulators/Δ cpm of responders).
The Transwell System of Example 2 above was used to identify the epitopes present on guinea pig MBP which induce the release of TGF-β from suppressor T-cells.
Peptides corresponding to guinea pig MBP residue nos.

EAE [1] = test: EAE induced by guinea pig MBP 71-90, feeding of MBP peptides; format: in vivo, Lewis rats; details: fed; FIG. 14
Method: The effects of feeding various peptides to Lewis rats induced for EAE by guinea pig MBP residue nos. 71-90 (the major immunodominant epitope of guinea pig MBP as shown in Example 3 above) were also studied.
EAE was induced by immunizing with 0.25 mg of guinea pig MBP amino acid residue nos 71-90 in Complete Freund's Adjuvant and the effect of feeding various guinea pig MBP peptides on EAE was examined.

DTH responses = DTH responses in animals fed MBP or MBP peptides; format: in vivo, Lewis rats; details: FIG. 15
From the text: Guinea pig MBP peptide 131-150 was ineffective in this case. Peptides were also fed with STI which prevents their breakdown by gastric juices and enhances their biological effect. DTH responses to whole MBP were suppressed by feeding MBP or any one of the MBP-peptides 21-40, or 71-90.

EAE [2] = test: I.V. tolerization with MBP and MBP peptides in EAE induced with whole guinea pig MBP; format: in vivo, SJL/J mice; details: days 8 and 9 post immunization, FIG. 16
From the text: FIG. 16 is a bar graph showing the effect of intravenous tolerization with MBP and disease inducing and non-inducing fragments thereof on induced EAE expression in SJL/J mice.
Finally, the suppression of EAE by I.V. tolerization with MBP and MBP peptides prior to disease expression (on days 8 and 9 post immunization) was examined.

EAE [3] = test: EAE induced with PLP peptide 140-160, oral vs. I.V. administration; format: in vivo, SJL/J mice; details: 0.25 mg every other day
Method: 2. Fed Mouse MBP (0.25 mg)
3. Fed Bovine PLP (0.25 mg)
4. Inject I.V. Histone (0.25 mg)
5. Inject I.V. MBP (0.25 mg)
6. Inject I.V. PLP (0.25 mg)
Each group was treated every other day for 7 days. In the intravenous group, the material was injected into the eye plexus. The PLP peptide used was the disease inducing fragment 140-160 of bovine PLP. This peptide has the amino acid sequence H2N-[…]-CO2H (SEQ. ID NO: 13), representing the foregoing amino acid residues.

Molecule: A-Chain: insulin A-chain, synthesized
- suppression of insulitis (in words) (insulitis): suppressed insulitis
- Insulitis Score (insulitis): 1.88

Molecule: B1-12: insulin B-chain peptide, amino acid residues 1-12 (FVNQHLCGSHLV; ends and bridges not checked; UniProt P01308 25-36, looked up, fragment)
- suppression of insulitis (in words) (insulitis): suppressed insulitis
- Insulitis Score (insulitis): 1.76

Molecule: B10-22: insulin B-chain peptide, amino acid residues 10-22 (HLVEALYLVCGER; ends and bridges not checked; UniProt P01308 34-46, looked up, fragment)
- suppression of insulitis (in words) (insulitis): suppressed insulitis
- Insulitis Score (insulitis): 1.71

Molecule: B11-30: insulin B-chain peptide, amino acid residues 11-30 (LVEALYLVCGERGFFYTPKT; ends and bridges not checked; UniProt P01308 35-54, looked up, fragment)
- suppression of insulitis (in words) (insulitis): suppressed insulitis
- Insulitis Score (insulitis): 1.44

Molecule: B23-30: insulin B-chain peptide, amino acid residues 23-30 (GFFYTPKT; Insulin B chain; UniProt P01308 47-54, looked up, fragment)
- suppression of insulitis (in words) (insulitis): did not
- Insulitis Score (insulitis): 2.22

Molecule: B-Chain: insulin B-chain, synthesized
- suppression of insulitis (in words) (insulitis): suppressed insulitis
- Insulitis Score (insulitis): 1.32

Molecule: glucagon [reference compound]
- suppression of insulitis (in words) (insulitis): effective in suppressing insulitis
- Insulitis Score (insulitis): 1.81

Molecule: guinea pig MBP 21-40: peptide corresponding to guinea pig MBP amino acid residues 21-40 (MDHARHGFLPRHRDTGILDS; UniProt P25188 21-40, looked up, fragment)
- triggering suppression of proliferation in the transwell system (OVA (responder) line): capable of triggering suppression of proliferation
- down-regulation of EAE induced by guinea pig MBP 71-90 (EAE [1]): equally effective in down-regulating EAE
- DTH responses to guinea pig MBP peptide 71-90 (DTH responses): not affected
- DTH responses to whole MBP (DTH responses): suppressed
- suppression of EAE induced with whole guinea pig MBP (EAE [2]): ineffective in suppressing EAE

Molecule: guinea pig MBP 51-70: peptide corresponding to guinea pig MBP amino acid residues 51-70 (APKRGSGKDSHHAARTTHYG; UniProt P25188 51-70, looked up, fragment)
- triggering suppression of proliferation in the transwell system (OVA (responder) line): capable of triggering suppression of proliferation

Molecule: guinea pig MBP 101-120: peptide corresponding to guinea pig MBP amino acid residues 101-120 (SQGKGRGLSLSRFSWGAEGQ; UniProt P25188 101-120, looked up, fragment)
- triggering suppression of proliferation in the transwell system (OVA (responder) line): capable of triggering suppression of proliferation

Molecule: guinea pig MBP 131-150: Guinea pig MBP peptide 131-150 (DYKSKGFKGAHDAQGTLSKI; UniProt P25188 131-150, looked up, fragment)
- down-regulation of EAE induced by guinea pig MBP 71-90 (EAE [1]): ineffective
- suppression of EAE induced with whole guinea pig MBP (EAE [2]): ineffective in suppressing EAE

B1: bovine PLP: Bovine proteolipid protein (protein, listed as Bos taurus)
chain: GLLECCARCLVGAPFASLVATGLCFFGVALFCGCGHEALTGTEKLIETYFSKNYQDYEYLINVIHAFQYVIYGTASFFFLYGALLLAYGFYTTGAVRQIFGDYKTTICGKGLSATVTGGQKGRGSRGQHQAHSLERVCHCLGKWLGHPDKFVGITYALTVVWLLVFACSAVPVYIYFNTWTTCQSIAAPSKTSASIGTLCADARMYGVLPWNAFPGKVCGSNLLSICKTAEFQMTFHLFIAAFVGAAATLVSLVTFMIAATYNFAVLKLMGRGTKF
- suppression of PLP-peptide-induced EAE (EAE [3]; administered intravenously, FIG. 13): effective in suppressing EAE
- suppression of PLP-peptide-induced EAE (EAE [3]; orally administered, FIG. 12): equally effective in down-regulating PLP-peptide-induced EAE

B2: mouse MBP: Mouse myelin basic protein (protein, UniProt P04370 1-250, looked up)
Myelin basic protein: MGNHSGKRELSAEKASKDGEIHRGEAGKKRSVGKLSQTASEDSDVFGEADAIQNNGTSAEDTAVTDSKHTADPKNNWQGAHPADPGNRPHLIRLFSRDAPGREDNTFKDRPSESDELQTIQEDPTAASGGLDVMASQKRPSQRSKYLATASTMDHARHGFLPRHRDTGILDSIGRFFSGDRGAPKRGSGKDSHTRTTHYGSLPQKSQHGRTQDENPVVHFFKNIVTPRTPPPSQGKGGRDSRSGSPMARR
- suppression of PLP-peptide-induced EAE (EAE [3]; orally administered, FIG. 12): equally effective in down-regulating PLP-peptide-induced EAE
